Results taken from US10960004B2, “Method for treating cancer patients with severe renal impairment” (TAIHO PHARMACEUTICAL CO., LTD., priority 2016, dated 2021).
Read-outs that look alike come from different tables or passages of the source.

Experiment: Pharmacokinetics of FTD and TPI in plasma of solid cancer patients given FTD/TPI combination drug, by renal function cohort
Assay type: in vivo, human
Settings: for CL/F / Cmax / half-life / AUC(0-t): 35 mg/m^2 per once as FTD, oral, twice a day, plasma, mean; for Cmax / half-life / AUC(0-t): human, po; for AUC(0-t): read-out: AUC0-12; for AUC0-12 higher as compared to patients with normal renal function: after repeated administrations, 35 mg/m^2
Description: Pharmacokinetic of FTD was studied in patients with solid cancer including colorectal cancer, when performing a treatment of repeating an administration schedule of orally administering an FTD/TPI combination drug (mixture of FTD and TPI in a molar ratio of 1:0.5) in 35 mg/m^2 per once (as FTD, the same applies hereinafter) for 5 consecutive days twice a day, followed by rest for 2 days twice, followed by rest for 14 days, and repeating this procedure as one cycle. […] Blood collection was performed after administration of the FTD/TPI combination drug on Day 1 and Day 12, at predose and at 0.5, 1, 2, 4, 6, 8, 10, 12 hours after administration, and FTD and TPI concentrations in plasma were measured. Pharmacokinetic parameters of FTD and TPI were calculated using the resulting concentrations in the plasma, and the results were shown in Table 1.

[1] = Day 1, Cohort 0: normal renal function
[2] = Day 1, Cohort 1: mild renal impairment (CLcr 60 to 89 mL/min)
[3] = Day 1, Cohort 2: moderate renal impairment (CLcr 30 to 59 mL/min)
[4] = Day 12, Cohort 0: normal renal function
[5] = Day 12, Cohort 1: mild renal impairment (CLcr 60 to 89 mL/min)
[6] = Day 12, Cohort 2: moderate renal impairment (CLcr 30 to 59 mL/min)
[7] = 35 mg/m2, Day 1, Cohort 0: normal renal function
[8] = 35 mg/m2, Day 1, Cohort 1: mild renal impairment (CLcr 60 to 89 mL/min)
[9] = 35 mg/m2, Day 1, Cohort 2: moderate renal impairment (CLcr 30 to 59 mL/min)
[10] = 35 mg/m2, Day 12, Cohort 0: normal renal function
[11] = 35 mg/m2, Day 12, Cohort 1: mild renal impairment (CLcr 60 to 89 mL/min)
[12] = 35 mg/m2, Day 12, Cohort 2: moderate renal impairment (CLcr 30 to 59 mL/min)

| SMILES | CL/F [1] [L/h] | CL/F [2] [L/h] | CL/F [3] [L/h] | CL/F [4] [L/h] | CL/F [5] [L/h] | CL/F [6] [L/h] | Cmax [7] [µg/mL] | half-life [7] [h] | AUC(0-t) [7] [µg·h/mL] | Cmax [8] [µg/mL] | half-life [8] [h] | AUC(0-t) [8] [µg·h/mL] | Cmax [9] [µg/mL] | half-life [9] [h] | AUC(0-t) [9] [µg·h/mL] | Cmax [10] [µg/mL] | half-life [10] [h] | AUC(0-t) [10] [µg·h/mL] | Cmax [11] [µg/mL] | half-life [11] [h] | other results |
| --- | --- | --- | --- | --- | --- | --- | --- | --- | --- | --- | --- | --- | --- | --- | --- | --- | --- | --- | --- | --- | --- |
| O=c1[nH]c(=O)n([C@H]2C[C@H](O)[C@@H](CO)O2)cc1C(F)(F)F [FTD, α,α,α-trifluorothymidine] | 8.72 | 10.08 | 9.17 | 3.29 | 4.1 | 2.1 | 2.88 | 1.26 | 7.87 | 3.16 | 1.79 | 7.29 | 2.76 | 1.9 | 8.13 | 5.24 | 2.09 | 20.1 | 4.67 | 2.4 | AUC(0-t) [11]: 23.4 µg·h/mL; Cmax [12]: 6.01 µg/mL; half-life [12]: 3.22 h; AUC(0-t) [12]: 30.4 µg·h/mL; AUC0-12 higher as compared to patients with normal renal function (patients with mild renal impairment (Cohort 1)): about 16%; AUC0-12 higher as compared to patients with normal renal function (patients with moderate renal impairment (Cohort 2)): about 51% |
| Cl.N=C1CCCN1Cc1[nH]c(=O)[nH]c(=O)c1Cl [TPI, 5-chloro-6-[(2-iminopyrrolidine-1-yl)methyl]pyrimidine-2,4(1H,3H)-dione hydrochloride] | 148.5 | 105.1 | 64.8 | 128.3 | 83.1 | 62 | 0.0465 | 2.04 | 0.234 | 0.0939 | 2.33 | 0.38 | 0.1 | 2.42 | 0.494 | 0.0488 | 2.61 | 0.247 | 0.0678 | 2.54 | AUC(0-t) [11]: 0.383 µg·h/mL; Cmax [12]: 0.112 µg/mL; half-life [12]: 2.63 h; AUC(0-t) [12]: 0.602 µg·h/mL |
